Experimental findings from US7625875B2 (priority 2002, dated 2009) are described below.

One data set relates to REO-1. Description: microbe, parasite or virus in culture. Type of data set: cell-based, double-stranded RNA Reovirus.
The next data set relates to CVA-9. Type of data set: cell-based, Coxsackievirus A-9.
Data set [1] relates to MT-4 human T-lymphocyte cells.
The subject of the next data set is CVB-2. Description: organism not typed. Type of data set: cell-based, Coxsackie B-2 virus.
The subject of the next data set is Sb-1. Description: organism not typed. Type of data set: cell-based, Sabin type 1 poliomyelitis virus.
In another data set the test system is CVB-3. It is filed as cell-based, Coxsackievirus B-3.
For the next data set, the system named is CVB-4. Type of data set: cell-based, Coxsackievirus B-4.
The subject of data set [2] is Vero 76, African green monkey kidney cells.
For a further data set, the system named is YFV. Type of data set: cell-based, yellow fever virus. Particulars: Tables 30b, 30k-30o.
Another data set relates to BVDV. Type of data set: cell-based, bovine viral diarrhea virus.
A further data set deals with WNV. Description: microbe, parasite or virus in culture. It is filed as cell-based, West Nile virus. The note with it: read-out: WNV.
The next data set has as its system DENV 2. Kind of data set: microbe, parasite or virus in culture. Type of data set: cell-based, dengue virus. Particulars: read-out: DENV 2.
For data set [3], the system named is HepG2 cells. Description: Transmission electron microscopy of mitochondrial ultrastructure. Particulars: 10 μM, 14 days.
Data set [4] relates to HepG2 cells. Kind of data set: Mitochondrial DNA content. It is filed as cell-based, human. Particulars: for mtDNA/nuclear DNA (% of Control): 1 μM. Here is the method: To assess the potential of mCyd to produce mitochondrial toxicity, several in vitro studies were conducted using the human hepatoma cell lines HepG2 or Huh7.
The significance of this finding is unclear, particularly since mCyd is unlikely to attain a plasma concentration of 50 μM in the clinic. For comparison, lactic acid production increases by 100% over control cells in cells treated with 10 μM FIAU (Cui L, Yoon, et al. J. Clin. Invest. 1995; 95:555-563).

Data set [5] deals with HepG2 cells. Description: Incorporation of drug into cellular RNA and DNA. Particulars: 10 μM [3H] drug, 30 hours.

“And” between values parts separate entries of the source, which are not always exact repeats. Identical values can stand only once. Like-named read-outs stand apart in the source and are kept apart here. Some results are limits rather than exact numbers.

Consider `C#C[C@@]1(O)[C@H](O)[C@@H](CO)O[C@H]1n1ccc(N)nc1=O` [Compound I, β-D-2′-C-ethynyl-cytidine], for which the EC50 was over 100 µM in the data set with REO-1 (read-out: EC50 REO-1); 59 µM with CVA-9; 33 µM with CVB-2 (read-out: EC50 CVB-2); 26 µM in the data set on Sb-1 (read-out: EC50 Sb-1); 33 µM with CVB-3; 24 µM in the data set on CVB-4. Also, the figures for the CC50 (in data set [1]; in the data set on BHK; in data set [2]) were at least 100 µM, over 100 µM and over 100 µM, respectively.
On to `C[C@@]1(O)[C@H](O)[C@@H](CO)O[C@H]1n1cnc2c(N)ncnc21` [Compound A, β-D-2′-C-methyl-adenosine], for which the EC50 in the data set on REO-1 (read-out: EC50 REO-1) was over 70 µM; in the data set on REO-1 (read-out: REO), over 70 µM; in the data set on CVA-9, 12 µM; with CVB-2 (read-out: CVB-2), 7 µM; in the data set with CVB-2 (read-out: EC50 CVB-2), 10 µM; with YFV, 2.7 µM. In addition, the EC50 came to 1.2 µM in the data set on BVDV; 14 µM in the data set with CVB-3; 3.6 µM with WNV; 13 µM in the data set with CVB-4; 2.7 µM in the data set with DENV 2. The results for the CC50 (in [1]; in the data set on BHK; in data set [2]) were 4 µM, 70 µM and 80 µM, respectively.
For `CC(C(=O)c1ccccc1)n1c(N)nc2c(ncn2[C@@H]2O[C@H](CO)[C@@H](O)[C@@]2(C)O)c1=O` (stereo partly drawn) [Compound L, β-D-2′-C-methyl-1-(methyl-2-oxo-2-phenylethyl)guanosine], the EC50 in the data set on REO-1 (read-out: REO) was 12 µM; with CVB-2 (read-out: CVB-2), over 100 µM; in the data set on YFV, 6 µM; with BVDV, 12 µM; with Sb-1 (read-out: Sb-1), over 100 µM; in the data set with WNV, 3 µM. In addition, the EC50 with DENV 2 was 4.4 µM. In data set [1], this compound registered a CC50 of over 100 µM.
As to `C[C@@]1(O)[C@H](O)[C@@H](CO)O[C@H]1n1cnc2c(NC3CC3)nc(N)nc21` [Compound K, β-D-2′-C-methyl-2-amino-6-cyclopropyl adenosine], the EC50 with REO-1 (read-out: REO) was 9.5 µM; in the data set with CVB-2 (read-out: CVB-2) it was over 100 µM; with YFV, 10 µM; in the data set with BVDV, 18 µM; with Sb-1 (read-out: Sb-1), over 100 µM; with WNV, 3.5 µM. In addition, the EC50 with DENV 2 was found to be 4.9 µM. In addition, in data set [1], the CC50 is over 100 µM.
As to `C[C@@]1(O)[C@H](O)[C@@H](CO)O[C@H]1n1cnc2c(Cl)nc(N)nc21` [Compound D, β-D-2′-C-methyl-6-chloro-guanosine], the EC50 with REO-1 (read-out: EC50 REO-1) came to 0.4 µM; in the data set with REO-1 (read-out: REO), 0.4 µM; in the data set with CVA-9 it was 37 µM; in the data set with CVB-2 (read-out: CVB-2), 25 µM; in the data set with CVB-2 (read-out: EC50 CVB-2), 25 µM; with YFV it was 1 µM. Also, the EC50 in the data set with BVDV came to 0.7 µM; in the data set on Sb-1 (read-out: EC50 Sb-1), 50 µM; in the data set with Sb-1 (read-out: Sb-1), 50 µM; with CVB-3 it was 21 µM; with WNV it was 0.3 µM; with CVB-4, 25 µM. Besides, in the data set on DENV 2, the EC50 came out at 0.7 µM. In addition, the CC50 in data set [1] is over 100 µM; in the data set on BHK it was 30 µM; in data set [2] it was over 100 µM.
As for `Nc1nc(N)c2ncn([C@@H]3O[C@H](CO)[C@@H](O)[C@H]3O)c2n1` [Compound J, β-D-2-amino-adenosine], the EC50 in the data set on REO-1 (read-out: EC50 REO-1) is over 100 µM; in the data set with CVA-9, 53 µM; in the data set on CVB-2 (read-out: EC50 CVB-2), 53 µM; in the data set with Sb-1 (read-out: EC50 Sb-1) it was 40 µM; with CVB-3 it was 55 µM; in the data set with CVB-4 it was 50 µM. Further, the CC50 was 50 µM in [1], over 100 µM with BHK and over 100 µM in data set [2].
`Nc1ccn([C@H]2CC[C@@H](CO)O2)c(=O)n1` [ddC, zalcitabine, reference compound]: in the data set on HepG2 cells [3], the “Electron Microscopy, Lipid Droplet Form.” value is recorded as “Positive” and the “Electron Microscopy, Mito. Morphol.” value was “Loss of Cristae”. Further, the “mtDNA/nuclear DNA (% of Control)” value with HepG2 cells [4] (6 day treatment) is 44.3 ± 9.3 % of Control. Also, the “mtDNA/nuclear DNA (% of Control)” value in the data set on HepG2 cells [4] (14 day treatment) is 19.6 ± 8.2 % of Control. Besides, the “reduction of mitochondrial DNA content” value with HepG2 cells [4] (6 days) is on record as 56%. The “reduction of mitochondrial DNA content” value in the data set with HepG2 cells [4] (14 days) was determined as 80%. In the data set with HepG2 cells [5], the “Incorporated drug amount, DNA” value was 0.0055 pmole/μg DNA and 0.0055^b pmole/μg DNA; the “Incorporated drug amount, RNA” value is 0.0013 pmole/μg RNA and 0.0013^b pmole/μg RNA.
On to `C[C@]1(CO)O[C@@H](n2ccc(=S)[nH]c2=O)[C@H](O)[C@@H]1O`, for which the melting point is 65 to 70 °C (dec.).
Regarding `C[C@]1(CO)O[C@@H](n2cnc3c(N)ncnc32)[C@H](O)[C@@H]1O`, the melting point was 96 to 97 °C (dec.).
Still for that read-out and setting: the same measure for `Cc1cn([C@@H]2O[C@](C)(CO)[C@@H](O)[C@H]2O)c(=O)[nH]c1=O`: 258 to 260 °C (dec.).
Take `C#C[C@@]1(O)[C@H](O)[C@@H](CO)O[C@H]1n1cnc2c(N)ncnc21` [Compound H, β-D-2′-C-ethynyl-adenosine]: the EC50 in the data set with REO-1 (read-out: EC50 REO-1) worked out at 6 µM; with REO-1 (read-out: REO) it was 6 µM; in the data set with CVA-9 it was 2.5 µM; with CVB-2 (read-out: CVB-2), 1.2 µM; in the data set with CVB-2 (read-out: EC50 CVB-2), 1.5 µM; in the data set on YFV, 2 µM. Also, the EC50 with BVDV was 0.4 µM; in the data set with Sb-1 (read-out: Sb-1) it was 0.7 µM; in the data set with CVB-3, 1 µM; in the data set with WNV it was 1 µM; with CVB-4 it was 2 µM; with DENV 2, 1.1 µM. Moreover, the results for the CC50 (in data set [1]; with BHK; in data set [2]) were 4.6 µM, 15 µM and 60 µM, respectively.
For `C[C@@]1(O)[C@H](O)[C@@H](CO)O[C@H]1n1cnc2c(=O)[nH]c(N)nc21` [Compound C, β-D-2′-C-methyl-guanosine], the EC50 was determined as 2 µM in the data set on REO-1 (read-out: EC50 REO-1); 2 µM in the data set on REO-1 (read-out: REO); 46 µM in the data set on CVA-9; 29 µM in the data set with CVB-2 (read-out: CVB-2); 30 µM with CVB-2 (read-out: EC50 CVB-2); 1.2 µM in the data set with YFV. Besides, the EC50 in the data set with BVDV worked out at 3.5 µM; in the data set with Sb-1 (read-out: Sb-1) it was 50 µM; with CVB-3, 22 µM; in the data set with WNV, 0.6 µM; with CVB-4, 12 µM; in the data set on DENV 2 it was 1.4 µM. Besides, the values for the CC50 (in data set [1]; with BHK; in data set [2]) were over 100 µM, 100 µM and over 100 µM, respectively.
On to `Cc1cn([C@H]2C[C@H](N=[N+]=[N-])[C@@H](CO)O2)c(=O)[nH]c1=O` [ZDV, zidovudine], for which, in the data set with HepG2 cells [5], the “Incorporated drug amount, DNA” value is 0.103 pmole/μg DNA and 0.103 ± 0.0123^a pmole/μg DNA; the “Incorporated drug amount, RNA” value is 0.0009 pmole/μg RNA and 0.0009 ± 0.0003^a pmole/μg RNA.
Consider `CC(C)[C@H](N)C(=O)OC[C@H]1O[C@@H](n2cnc3c(=O)[nH]c(N)nc32)[C@](C)(O)[C@@H]1OC(=O)[C@@H](N)C(C)C` [Compound E, 3′,5′-di-O-valinyl ester of β-D-2′-C-methyl-guanosine], for which the EC50 with REO-1 (read-out: EC50 REO-1) was determined as 2 µM; in the data set on REO-1 (read-out: REO) it was 2.1 µM; in the data set with CVA-9, 40 µM; in the data set on CVB-2 (read-out: CVB-2), 33 µM; in the data set with CVB-2 (read-out: EC50 CVB-2) it was 33 µM; in the data set on YFV, 1 µM. Besides, the EC50 worked out at 4.9 µM in the data set on BVDV; 55 µM in the data set with Sb-1 (read-out: Sb-1); 30 µM with CVB-3; 1 µM in the data set with WNV; 35 µM in the data set on CVB-4; 1.4 µM in the data set on DENV 2. Besides, the figures for the CC50 (in [1]; in the data set with BHK; in [2]) were over 100 µM, 100 µM and over 100 µM, respectively.
For `C[C@@]1(O)[C@H](O)[C@@H](CO)O[C@H]1n1cnc2c(N)nc(N)nc21` [Compound B, β-D-2′-C-methyl-2-amino adenosine], the EC50 amounted to 2 µM in the data set with REO-1 (read-out: EC50 REO-1); 2 µM in the data set on REO-1 (read-out: REO); 39 µM in the data set on CVA-9; 76 µM with CVB-2 (read-out: CVB-2); 75 µM in the data set with CVB-2 (read-out: EC50 CVB-2); 0.8 µM in the data set with YFV. For the same compound, the EC50 in the data set with BVDV turned out to be 2.1 µM; in the data set with Sb-1 (read-out: EC50 Sb-1) it was 90 µM; in the data set on Sb-1 (read-out: Sb-1), 90 µM; in the data set with CVB-3, 23 µM; in the data set with WNV it was 0.3 µM; in the data set with CVB-4, 32 µM. In addition, the EC50 in the data set with DENV 2 stood at 0.7 µM. Also, the CC50 in [1] is over 100 µM; in the data set with BHK it was 50 µM; in data set [2], over 100 µM.

As usually defined, the melting point is the temperature, or range, at which the solid turns liquid.
